Reference: BindingDB's records for doi:10.1016/j.ejmech.2021.113681 (Moscow State University, 2021)
pIC50: −log10 of the molar value.

Assay: Inhibition of gp120 in HIV-1 subtype B #11578 harboring pseudotyped Env pWEAUd15.410.5017 infected in human TZM-bl cells assessed as reduction in viral infection pretreated for 30 mins before viral infection and measured after 3 days by luciferase based single cycle infection assay

| SMILES | pIC50 |
| --- | --- |
| Cc1nc([C@@H](CN)NC(=O)C(=O)Nc2ccc(Cl)cc2)sc1CO | < 4.57 |
| Cc1nc([C@H](CN)NC(=O)C(=O)Nc2ccc(Cl)cc2)sc1CO | < 4.57 |
| Cc1nc([C@@H](CCN)NC(=O)C(=O)Nc2ccc(Cl)cc2)sc1CO | < 4.82 |
| Cc1nc([C@H](CCN)NC(=O)C(=O)Nc2ccc(Cl)cc2)sc1CO | < 4.82 |
| NC[C@@H](NC(=O)C(=O)NCc1ccc(Cl)c(F)c1)c1ncc(CO)s1 | < 4.82 |
| NC[C@H](NC(=O)C(=O)NCc1ccc(Cl)c(F)c1)c1ncc(CO)s1 | < 4.82 |
| NC[C@@H](NC(=O)CNCc1ccc(Cl)cc1)c1ncc(CO)s1 | < 4.63 |
| NC[C@H](NC(=O)CNCc1ccc(Cl)cc1)c1ncc(CO)s1 | < 4.63 |
| NC[C@@H](NC(=O)c1ccc(-c2ccc(Cl)cc2)[nH]1)c1nccs1 | 5.48 |
| NC[C@H](NC(=O)c1ccc(-c2ccc(Cl)cc2)[nH]1)c1nccs1 | 6.10 |
| NCCNC(=O)c1ccc(-c2ccc(Cl)c(F)c2)[nH]1 | 5.42 |
| O=C(NC1CCNCC1)c1ccc(-c2ccc(Cl)c(F)c2)[nH]1 | 5.18 |
| CC1(C)CC(NC(=O)c2ccc(-c3ccc(Cl)c(F)c3)[nH]2)CC(C)(C)N1 | 5.21 |
| O=C(NC1(c2nc(CO)cs2)CCNCC1)c1ccc(-c2ccc(C(F)(F)F)cc2)[nH]1 | 4.94 |
| O=C(N[C@H](CC1CCNCC1)c1nc(CO)cs1)c1ccc(-c2ccc(C(F)(F)F)cc2)[nH]1 | 4.91 |
| O=C(N[C@@H](CC1CCNCC1)c1nc(CO)cs1)c1ccc(-c2ccc(C(F)(F)F)cc2)[nH]1 | 5.07 |
| Cc1nc([C@@H](CN)NC(=O)NC(=O)c2ccc(Cl)cc2)sc1CO | < 4.27 |
| Cc1nc([C@H](CN)NC(=O)NC(=O)c2ccc(Cl)cc2)sc1CO | < 4.27 |
| NC[C@@H](NC(=O)c1ccc(C2CCCCC2)[nH]1)c1ncc(CO)s1 | < 4.55 |
| NC[C@H](NC(=O)c1ccc(C2CCCCC2)[nH]1)c1ncc(CO)s1 | < 4.55 |
| NC[C@@H](NC(=O)c1ccc(OCC2CCCCC2)cc1)c1ncc(CO)s1 | < 4.82 |
| NC[C@H](NC(=O)c1ccc(OCC2CCCCC2)cc1)c1ncc(CO)s1 | < 4.82 |
| NC[C@@H](NC(=O)c1ccc(NCC2CCCCC2)cc1)c1ncc(CO)s1 | < 4.82 |
| NC[C@H](NC(=O)c1ccc(NCC2CCCCC2)cc1)c1ncc(CO)s1 | < 4.82 |
| NC[C@@H](NC(=O)Cc1ccc(OCC2CCCCC2)cc1)c1ncc(CO)s1 | < 4.60 |
| NC[C@H](NC(=O)Cc1ccc(OCC2CCCCC2)cc1)c1ncc(CO)s1 | < 4.60 |
| Cc1nc([C@@H](CN)NC(=O)c2cc3ccccc3[nH]2)sc1CO | < 4.22 |
| Cc1nc([C@H](CN)NC(=O)c2cc3ccccc3[nH]2)sc1CO | < 4.22 |
| Cc1nc([C@@H](CN)NC(=O)c2cc3cc(Cl)ccc3[nH]2)sc1CO | < 4.40 |
| Cc1nc([C@H](CN)NC(=O)c2cc3cc(Cl)ccc3[nH]2)sc1CO | < 4.40 |
